# Source: US20250034135A1, “ANTI-APOPTOTIC PROTEIN BCL-2 INHIBITOR, PHARMACEUTICAL COMPOSITION AND USES THEREOF” (HANGZHOU HEALZEN THERAPEUTICS CO., LTD., priority 2021, published 2025)
# Like-named read-outs stand apart in the source and are kept apart here.
# Legend:
# [1] = target: BCL-XL (Homo sapiens (Human), UniProt Q07817); experiment: BCL-XL enzyme molecular level activity test (HTRF, binding to BIM peptide); details: binding of BCL-XL to BIM peptide, read-out: BCL-XL inhibitory activity (IC50)
# Chain of BCL-XL (Q07817 whole entry): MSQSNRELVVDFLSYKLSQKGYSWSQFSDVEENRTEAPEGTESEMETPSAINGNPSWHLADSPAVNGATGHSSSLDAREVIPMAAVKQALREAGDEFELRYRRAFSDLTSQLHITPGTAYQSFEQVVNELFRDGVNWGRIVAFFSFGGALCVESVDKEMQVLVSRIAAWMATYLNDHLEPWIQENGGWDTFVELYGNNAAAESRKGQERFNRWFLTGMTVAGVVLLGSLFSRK
# How it was run: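 HTRF binding assay: His-tagged recombinant BCL-XL with biotin-BIM peptide and compound (2% DMSO), 1 h. Anti-His and streptavidin-XL665 detection reagents added, 4 h at room temperature. Excitation 320 nm; 665/615 nm ratio reflects binding, with no-protein background and no-compound full-binding controls.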
# [2] = tested on: RS4; 11 cells; experiment: Tumor proliferation inhibitory activity test (MTS) on RS4; 11; format: cell-based; details: Homo sapiens, RS4-11, 72 h, 3 days incubation
# Procedure: The cell proliferation inhibitory ability of the compounds on RS4; 11 was tested using the MTS method. MTS is a tetrazolium blue salt compound that can be reduced by various dehydrogenases in live cell mitochondria to their respective colored methylzan products. Its color depth is highly correlated with the number of live cells in certain sensitive cell lines within a certain range. RS4; 11, RS4; 11 (BCL-2-G101V) and MOLT-4 tumor cells were cultivated separately and collected, 180 μL of cell suspension was added to each well in a 96-well cell plate, 20 μL of DMSO with a final concentration of 0.2% was added to the control cell wells, 20 μL of gradient diluted compounds were added to cell wells, and the treated cells were incubated in a 5% CO2 incubator at 37° C. for 3 days. After the incubation was completed, the reaction solution was prepared according to the MTS reagent kit, 20 μL was added per well and incubated in a 5% CO2 incubator at 37° C. for 3-4 hours. The absorbance value at 490 nm was read using an enzyme-linked immunosorbent assay (ELISA) plate, and the absorbance value at 690 nm was used as the background value, with OD490 nm-OD690 nm as the final raw data. The formula for calculating the inhibition ratio of compounds was as follows: inhibition ratio=(ODDMSO−ODCompound)/(ODDMSO−ODblank)×100%.
# [3] = target: BCL2 (G101V) (Homo sapiens (Human), UniProt P10415, G101V); experiment: Molecular level activity test of anti-apoptotic protein BCL2 (G101V) (HTRF, binding to Bim peptide); details: inhibition of BCL2 (G101V) binding to Bim peptide, read-out: BCL-2 (G101V)
# Procedure: (§1) The detection of the binding ability between anti-apoptotic protein BCL2 (G101V) and pro-apoptotic protein Bim was performed using Homogeneous Time-Resolved Fluorescence technology. The reaction of this method occurred in a white shallow 384-well plate, with a total reaction volume of 10 μL. Specifically, it included 2 μL of the compound to be tested (2% DMSO), 4 μL His-tagged recombinant protein, and 4 μL Biotin-tagged BIM protein peptide. After 1 hour of reaction, 5 L of each Anti-His and streptavidin-tagged XL665 antibody diluents diluted with a detection buffer were added. After incubating at room temperature for 4 hours, the values were read using the Envision multifunctional microplate reader to detect the effect of the compound to be tested on the binding ability of BCL2 (G101V) to BIM protein peptides.
# [4] = target: BCL2 (Homo sapiens (Human), UniProt P10415); experiment: Molecular level activity test of anti-apoptotic protein BCL2 (HTRF, binding to Bim peptide)
# How it was run: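 HTRF readout; His-BCL2 + biotin-BIM peptide + cpd (2% DMSO in compound addition), 1 h; then anti-His + SA-XL665 detection reagents, 4 h RT.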
# [5] = target: BCL2 (D103Y) (Homo sapiens (Human), UniProt P10415, D103Y); experiment: Molecular level activity test of BCL2 (D103Y) (HTRF, binding to Bim peptide); details: read-out: BCL-2 (D103Y) (nM) (inhibitory activity, IC50)
# Procedure: as §1, with “BCL2 (D103Y)” for “BCL2 (G101V)”, “5 μL” for “5 L”
# [6] = HTRF, binding of BCL2 to Bim peptide, read-out: BCL2 nM (inhibitory activity, IC50)
Structure (SMILES),IC50 ([1]; values in nM) [nM],IC50 [2] [nM],IC50 [3] [nM],"IC50 [4, 6] [nM]",IC50 [5] [nM],IC50 ([1]; values given in μM) [nM],IC50 [4] [nM]
"CNCc1ccc(CN2CCN(C3CC4(CCN(c5cc(Oc6cnc7[nH]ccc7c6)c(C(=O)NS(=O)(=O)c6ccc(NCC7(F)CCOCC7)c([N+](=O)[O-])c6)cc5F)CC4)C3)[C@H](c3ccccc3C(C)C)C2)cc1 [compound 243, (R)-2-((1H-pyrrolo[2,3-b]pyrid-5-yl)oxy)-5-fluoro-N-((4-(((4-fluorotetrahydro-2H-pyran-4-yl)methyl)amino)-3-nitrophenyl)sulfonyl)-4-(2-(2-(2-isopropylphenyl)-4-(4-((methylamino)methyl)benzyl)piperazin-1-yl)-7-azaspiro[3.5]non-7-yl)benzamide]",> 500,0.5 to 1,< 10,< 10,< 10,–,–
"COc1ccc(CN2CCN(C3CC4(CCN(c5cc(Oc6cnc7[nH]cc(F)c7c6)c(C(=O)NS(=O)(=O)c6ccc(NCC7CCOCC7)c([N+](=O)[O-])c6)cc5F)CC4)C3)[C@H](c3ccccc3C(C)C)C2)cc1 [compound 240, (R)-5-fluoro-2-((3-fluoro-1H-pyrrolo[2,3-b]pyrid-5-yl)oxy)-4-(2-(2-(2-isopropylphenyl)-4-(4-methoxybenzyl)piperazin-1-yl)-7-azaspiro[3.5]non-7-yl)-N-((3-nitro-4-(((tetrahydro-2H-pyran-4-yl)methyl)amino)phenyl)sulfonyl)benzamide]",> 500,0.5 to 1,< 10,< 10,< 10,–,–
"COc1ccc(CN2CCN(C3CC4(CCN(c5cc(Oc6cnc7[nH]ccc7c6)c(C(=O)NS(=O)(=O)c6ccc(NC[C@H]7CC[C@](C)(O)CC7)c([N+](=O)[O-])c6)cc5F)CC4)C3)[C@H](c3ccccc3C(C)C)C2)cn1 [compound 236, 2-((1H-pyrrolo[2,3-b]pyrid-5-yl)oxy)-5-fluoro-N-((4-((((1r, 4r)-4-hydroxy-4-methylcyclohexyl)methyl)amino)-3-nitrophenyl)sulfonyl)-4-(2-((R)-2-(2-isopropylphenyl)-4-((6-methoxypyrid-3-yl)methyl)piperazin-1-yl)-7-azaspiro[3.5]non-7-yl)benzamide]",> 500,0.5 to 1,< 10,< 10,< 10,–,–
"CNCc1cc(CN2CCN(C3CC4(CCN(c5cc(Oc6cnc7[nH]ccc7c6)c(C(=O)NS(=O)(=O)c6ccc(NCC7(F)CCOCC7)c([N+](=O)[O-])c6)cc5F)CC4)C3)[C@H](c3ccccc3C(C)C)C2)ccc1OC [compound 249, (R)-2-((1H-pyrrolo[2,3-b]pyrid-5-yl)oxy)-5-fluoro-N-((4-(((4-fluorotetrahydro-2H-pyran-4-yl)methyl)amino)-3-nitrophenyl)sulfonyl)-4-(2-(2-(2-isopropylphenyl)-4-(4-methoxy-3-((methylamino)methyl)benzyl)piperazin-1-yl)-7-azaspiro[3.5]non-7-yl)benzamide]",> 500,0.5 to 1,< 10,< 10,< 10,–,–
"CC(C)c1ccccc1[C@@H]1CN(Cc2ccc(CN(C)C)cc2)CCN1C1CC2(CCN(c3cc(Oc4cnc5[nH]ccc5c4)c(C(=O)NS(=O)(=O)c4ccc(NCC5(F)CCOCC5)c([N+](=O)[O-])c4)cc3F)CC2)C1 [compound 244, (R)-2-((1H-pyrrolo[2,3-b]pyrid-5-yl)oxy)-4-(2-(4-(4-((dimethylamino)methyl)benzyl)-2-(2-isopropylphenyl)piperazin-1-yl)-7-azaspiro[3.5]non-7-yl)-5-fluoro-N-((4-(((4-fluorotetrahydro-2H-pyran-4-yl)methyl)amino)-3-nitrophenyl)sulfonyl)benzamide]",> 500,0.5 to 1,< 10,< 10,< 10,–,–

# The remaining lines, values ahead:
IC50 ([1]; values in nM) [nM],IC50 [2] [nM],IC50 [3] [nM],"IC50 [4, 6] [nM]",IC50 [5] [nM],IC50 ([1]; values given in μM) [nM],IC50 [4] [nM],Structure (SMILES)
> 500,0.5 to 1,< 10,< 10,< 10,–,–,"COc1ccc(CN2CCN(C3CC4(CCN(c5cc(Oc6cnc7[nH]ccc7c6)c(C(=O)NS(=O)(=O)c6cc([N+](=O)[O-])c(NCC7CCOCC7)c7[nH]cnc67)cn5)CC4)C3)[C@H](c3ccccc3C(C)C)C2)cc1 [compound 267, (R)-4-((1H-pyrrolo[2,3-b]pyrid-5-yl)oxy)-6-(2-(2-(2-isopropylphenyl)-4-(4-methoxybenzyl)piperazin-1-yl)-7-azaspiro[3.5]non-7-yl)-N-((6-nitro-7-(((tetrahydro-2H-pyran-4-yl)methyl)amino)-1H benzo[d]imidazol-4-yl)sulfonyl) nicotinamide]"
> 500,< 0.5,< 10,< 10,< 10,–,–,COc1ccc(CN2CCN(C3CC4(CCN(c5ccc(C(=O)NS(=O)(=O)c6cc([N+](=O)[O-])c(NCC7CCOCC7)c7[nH]cnc67)c(Oc6cnc7[nH]ccc7c6)c5)CC4)C3)[C@H](c3ccccc3C(C)C)C2)cc1 [compound 260]
–,0.5 to 1,< 10,< 10,< 10,> 20000,–,"COc1ccc(CN2CCN(C3CC4(CCN(c5cc(Oc6cnc7[nH]ccc7c6)c(C(=O)NS(=O)(=O)c6cc([N+](=O)[O-])c(NCC7CCOCC7)c7c6OCCO7)cc5F)CC4)C3)[C@H](c3ccccc3C(C)C)C2)cc1 [compound 265, (R)-2-((1H-pyrrolo[2,3-b]pyrid-5-yl)oxy)-5-fluoro-4-(2-(2-(2-isopropylphenyl)-4-(4-methoxybenzyl)piperazin-1-yl)-7-azaspiro[3.5]non-7-yl)-N-((7-nitro-8-(((tetrahydro-2H-pyran-4-yl)methyl)amino)-2,3-dihydrobenzo[b][1,4]dioxin-5-yl)sulfonyl)benzamide]"
> 500,0.5 to 1,< 10,–,< 10,–,< 10,"COc1ccc(CN2CCN(C3CC4(CCN(c5cc(Oc6cnc7[nH]cc(F)c7c6)c(C(=O)NS(=O)(=O)c6ccc(NCC7(F)CCOCC7)c([N+](=O)[O-])c6)cc5F)CC4)C3)[C@H](c3ccccc3C(C)C)C2)cc1OC [compound 253, (R)-4-(2-(4-(3,4-dimethoxybenzyl)-2-(2-isopropylphenyl)piperazin-1-yl)-7-azaspiro[3.5]non-7-yl)-5-fluoro-2-((3-fluoro-1H-pyrrolo[2,3-b]pyrid-5-yl)oxy)-N-((4-(((4-fluorotetrahydro-2H-pyran-4-yl)methyl)amino)-3-nitrophenyl)sulfonyl)benzamide]"
> 500,0.5 to 1,< 10,< 10,< 10,–,–,"COc1ccc(CN2CCN(C3CC4(CCN(c5cc(Oc6cnc7[nH]cc(F)c7c6)c(C(=O)NS(=O)(=O)c6ccc(NCC7(F)CCOCC7)c([N+](=O)[O-])c6)cc5F)CC4)C3)[C@H](c3ccccc3C(C)C)C2)cn1 [compound 254, (R)-5-fluoro-2-((3-fluoro-1H-pyrrolo[2,3-b]pyrid-5-yl)oxy)-N-((4-(((4-fluorotetrahydro-2H-pyran-4-yl)methyl)amino)-3-nitrophenyl)sulfonyl)-4-(2-(2-(2-isopropylphenyl)-4-((6-methoxypyrid-3-yl)methyl)piperazin-1-yl)-7-azaspiro[3.5]non-7-yl)benzamide]"
